Measurements from patent US20250129027A1 (APOGEE PHARMACEUTICALS, INC., priority 2023, published 2025).

Experiments:
human recombinant MAGL = human recombinant MAGL (Homo sapiens (Human), UniProt Q99685); assay: In vitro inhibition of MAGL activity (inhibitor screening kit, 4-nitrophenylacetate); type: biochemical; details: human recombinant MAGL
In short: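 Percent inhibition derived from absorbance (405-412 nm) of treated wells relative to untreated enzyme control. Human recombinant MAGL with 4-nitrophenylacetate substrate, whose cleavage yields yellow 4-nitrophenol.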

human recombinant FAAH = human recombinant FAAH (Homo sapiens (Human), UniProt O00519); assay: In vitro inhibition of FAAH activity (fluorescent inhibitor screening kit, AMC arachidonoyl amide); type: biochemical; details: human recombinant FAAH; read-out: Inhibition on FAAH activity (IC50)
In short: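 Fluorogenic kit assay: AMC arachidonoyl amide is cleaved by human recombinant FAAH, read at 340-360/450-465 nm. Percent inhibition versus non-treated control; IC50 values derived from multiple compound concentrations where tested.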

Chain of human recombinant MAGL (Q99685 whole entry): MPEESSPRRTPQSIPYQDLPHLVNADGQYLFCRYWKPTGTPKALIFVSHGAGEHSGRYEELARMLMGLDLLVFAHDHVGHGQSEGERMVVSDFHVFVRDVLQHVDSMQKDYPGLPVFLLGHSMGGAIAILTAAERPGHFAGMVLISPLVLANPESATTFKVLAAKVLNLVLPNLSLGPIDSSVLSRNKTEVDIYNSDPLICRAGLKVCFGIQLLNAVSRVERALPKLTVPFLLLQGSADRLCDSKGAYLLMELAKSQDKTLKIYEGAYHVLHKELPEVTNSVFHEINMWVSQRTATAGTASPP
Chain of human recombinant FAAH (O00519 whole entry): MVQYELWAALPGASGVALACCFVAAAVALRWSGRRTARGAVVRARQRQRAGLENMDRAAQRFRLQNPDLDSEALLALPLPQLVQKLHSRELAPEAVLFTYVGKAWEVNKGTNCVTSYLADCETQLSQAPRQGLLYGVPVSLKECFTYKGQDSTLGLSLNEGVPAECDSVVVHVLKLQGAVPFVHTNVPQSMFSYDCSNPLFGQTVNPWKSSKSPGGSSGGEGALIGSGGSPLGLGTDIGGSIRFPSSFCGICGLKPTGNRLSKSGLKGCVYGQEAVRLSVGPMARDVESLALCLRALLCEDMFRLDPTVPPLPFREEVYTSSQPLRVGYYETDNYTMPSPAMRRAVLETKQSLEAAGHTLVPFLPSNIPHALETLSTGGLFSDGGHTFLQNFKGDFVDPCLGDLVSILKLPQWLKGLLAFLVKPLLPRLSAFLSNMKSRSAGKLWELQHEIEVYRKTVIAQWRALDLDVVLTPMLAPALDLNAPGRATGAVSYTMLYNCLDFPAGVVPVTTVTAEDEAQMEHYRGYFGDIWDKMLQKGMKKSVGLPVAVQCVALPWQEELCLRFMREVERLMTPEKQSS

CC1CCC(NC(=O)Oc2cccc(-c3cc(-c4nnco4)ccn3)c2)CC1 (centres unmarked) [Example 261, 3-(4-(1,3,4-oxadiazol-2-yl)pyridin-2-yl)phenyl (4-methylcyclohexyl)carbamate]
IC50 (human recombinant MAGL): > 1000 nM | IC50 (human recombinant FAAH): 100 to 1000 nM

Cc1cc(OC(=O)NC2CCCCCC2)cc(-c2cncc(-c3ncco3)c2)c1 [Example 103, 3-methyl-5-(5-(oxazol-2-yl)pyridin-3-yl)phenyl cycloheptylcarbamate]
IC50 (human recombinant MAGL): ~10000 nM | IC50 (human recombinant FAAH): 100 to 1000 nM

O=Cc1cncc(-c2cccc(OC(=O)NC34CC5CC(CC(C5)C3)C4)c2)c1 [Example 21, 3-(5-formylpyridin-3-yl)phenyl ((1s,3s)-adamantan-1-yl)carbamate]
IC50 (human recombinant MAGL): > 10000 nM | IC50 (human recombinant FAAH): > 1000 nM

O=C(Oc1cccc(-c2cncc(-c3nnco3)c2)c1)N1CC2(COC2)C1 [Example 152, 3-(5-(1,3,4-oxadiazol-2-yl)pyridin-3-yl)phenyl 2-oxa-6-azaspiro[3.3]heptane-6-carboxylate]
IC50 (human recombinant MAGL): > 10000 nM | IC50 (human recombinant FAAH): > 1000 nM

COc1ccc(OC(=O)NC2CCCC2)cc1-c1cncc(-c2nncs2)c1 [Example 216, 3-(5-(1,3,4-thiadiazol-2-yl)pyridin-3-yl)-4-methoxyphenyl cyclopentylcarbamate]
IC50 (human recombinant MAGL): > 10000 nM | IC50 (human recombinant FAAH): 100 to 1000 nM

O=C(NC1CCCCC1)Oc1cc(F)cc(-c2cncc(-c3nnco3)c2)c1 [Example 197, 3-(5-(1,3,4-oxadiazol-2-yl)pyridin-3-yl)-5-fluorophenyl cyclohexylcarbamate]
IC50 (human recombinant MAGL): > 10000 nM | IC50 (human recombinant FAAH): 100 to 1000 nM

O=C(NC1CCCCC1)Oc1ccc(F)c(-c2cncc(-c3nnco3)c2)c1 [Example 192, 3-(5-(1,3,4-oxadiazol-2-yl)pyridin-3-yl)-4-fluorophenyl cyclohexylcarbamate]
IC50 (human recombinant MAGL): > 10000 nM | IC50 (human recombinant FAAH): 10 to 100 nM

COc1ccc(OC(=O)NC2CCCCCC2)cc1-c1cncc(-c2nncs2)c1 [Example 218, 3-(5-(1,3,4-thiadiazol-2-yl)pyridin-3-yl)-4-methoxyphenyl cycloheptylcarbamate]
IC50 (human recombinant MAGL): > 10000 nM | IC50 (human recombinant FAAH): 10 to 100 nM

O=C(NC1CCCCC1)Oc1cccc(-c2cncc(-c3ccno3)c2)c1 [Example 107, 3-(5-(isoxazol-5-yl)pyridin-3-yl)phenyl cyclohexylcarbamate]
IC50 (human recombinant MAGL): > 10000 nM | IC50 (human recombinant FAAH): 10 to 100 nM

CCCCCCCCNC(=O)Oc1ccc(OC)c(-c2cncc(-c3ncco3)c2)c1 [Example 78, 4-methoxy-3-(5-(oxazol-2-yl)pyridin-3-yl)phenyl octylcarbamate]
IC50 (human recombinant MAGL): 1000 to 10000 nM | IC50 (human recombinant FAAH): 10 to 100 nM

O=C(NCc1ccc2ccccc2c1)Oc1cccc(-c2cncc(-c3ncn[nH]3)c2)c1 [Example 222, 3-(5-(1H-1,2,4-triazol-5-yl)pyridin-3-yl)phenyl (naphthalen-2-ylmethyl)carbamate]
IC50 (human recombinant MAGL): ~10000 nM | IC50 (human recombinant FAAH): 10 to 100 nM

CC1CCC(NC(=O)Oc2ccc(F)c(-c3cncc(-c4ncco4)c3)c2)CC1 (centres unmarked) [Example 86, 4-fluoro-3-(5-(oxazol-2-yl)pyridin-3-yl)phenyl (4-methylcyclohexyl)carbamate]
IC50 (human recombinant MAGL): > 10000 nM | IC50 (human recombinant FAAH): 10 to 100 nM

COc1ccc(OC(=O)NCC2CCCCC2)cc1-c1cncc(-c2nncs2)c1 [Example 214, 3-(5-(1,3,4-thiadiazol-2-yl)pyridin-3-yl)-4-methoxyphenyl (cyclohexylmethyl)carbamate]
IC50 (human recombinant MAGL): > 10000 nM | IC50 (human recombinant FAAH): 10 to 100 nM

CCCCCCCCNC(=O)Oc1cccc(-c2cncc(-c3cccs3)c2)c1 [Example 59, 3-(5-(thiophen-2-yl)pyridin-3-yl)phenyl octylcarbamate]
IC50 (human recombinant MAGL): > 10000 nM | IC50 (human recombinant FAAH): 10 to 100 nM

Cc1cc(OC(=O)NCC2CCCCC2)cc(-c2cncc(-c3ncco3)c2)c1 [Example 99, 3-methyl-5-(5-(oxazol-2-yl)pyridin-3-yl)phenyl (cyclohexylmethyl)carbamate]
IC50 (human recombinant MAGL): ~10000 nM | IC50 (human recombinant FAAH): 100 to 1000 nM

O=Cc1cncc(-c2cccc(OC(=O)NC3CCCCCC3)c2)c1 [Example 20, 3-(5-formylpyridin-3-yl)phenyl cyclohepylcarbamate]
IC50 (human recombinant MAGL): > 10000 nM | IC50 (human recombinant FAAH): 100 to 1000 nM
